Assays:
RAW264.7 [1] = assay: cells; settings: Mus musculus
Description: Antiinflammatory activity against mouse RAW264.7 cells assessed as reduction of LPS-induced TNF-alpha production

K562 = assay: Growth inhibition of human K562 cells by XTT assay; type: functional; design: scale not given: the % may be the effect or the level left
HL-60 = assay: Growth inhibition of human HL60 cells by XTT assay; type: functional
RAW264.7 [2] = assay: cells; settings: Mus musculus; remark: listed apart in the source
Description: Antiinflammatory activity against mouse RAW264.7 cells assessed as reduction of LPS-induced NO production

[3] = target: T1, Inhibitor of nuclear factor kappa-B kinase subunit beta (Homo sapiens, UniProt O14920)
T1 sequence (O14920 whole entry): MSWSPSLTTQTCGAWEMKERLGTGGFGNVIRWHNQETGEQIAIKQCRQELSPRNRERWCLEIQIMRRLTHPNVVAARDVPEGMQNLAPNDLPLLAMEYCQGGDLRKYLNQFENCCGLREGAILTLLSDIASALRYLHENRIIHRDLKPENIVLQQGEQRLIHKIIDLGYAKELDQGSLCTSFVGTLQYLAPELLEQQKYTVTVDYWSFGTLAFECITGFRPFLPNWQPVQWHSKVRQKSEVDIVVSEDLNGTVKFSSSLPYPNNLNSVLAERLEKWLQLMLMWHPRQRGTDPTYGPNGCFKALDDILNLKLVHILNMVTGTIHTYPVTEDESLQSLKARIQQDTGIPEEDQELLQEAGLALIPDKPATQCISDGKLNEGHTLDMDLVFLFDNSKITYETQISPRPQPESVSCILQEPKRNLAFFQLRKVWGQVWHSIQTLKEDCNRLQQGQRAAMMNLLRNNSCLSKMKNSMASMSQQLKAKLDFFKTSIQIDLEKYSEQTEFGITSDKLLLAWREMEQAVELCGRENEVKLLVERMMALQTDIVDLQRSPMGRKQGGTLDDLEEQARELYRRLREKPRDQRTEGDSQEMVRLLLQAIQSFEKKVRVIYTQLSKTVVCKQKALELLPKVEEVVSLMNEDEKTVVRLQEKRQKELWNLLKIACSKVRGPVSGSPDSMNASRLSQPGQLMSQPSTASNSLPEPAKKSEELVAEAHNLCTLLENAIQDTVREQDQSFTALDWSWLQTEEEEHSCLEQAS
Description: Inhibition of IKKbeta kinase (unknown origin) by Radioisotope system

[4] = target: T1, Inhibitor of nuclear factor kappa-B kinase subunit beta; remark: listed apart in the source
Description: Inhibition of IKKbeta kinase (unknown origin) by Lance ULight system

[5] = target: Receptor-type tyrosine-protein kinase FLT3 (Homo sapiens) (UniProt P36888); assay: Inhibition of human FLT3 kinase assessed as residual activity at 10 uM relative to control
MV4-11 = assay: Growth inhibition of human MV4-11 cells by XTT assay; type: functional
[6] = Growth inhibition of human THP1 cells by XTT assay; type: functional; settings: THP-1
[7] = target: T2, Receptor-type tyrosine-protein kinase FLT3 (Homo sapiens, UniProt P36888)
T2 sequence (P36888 whole entry): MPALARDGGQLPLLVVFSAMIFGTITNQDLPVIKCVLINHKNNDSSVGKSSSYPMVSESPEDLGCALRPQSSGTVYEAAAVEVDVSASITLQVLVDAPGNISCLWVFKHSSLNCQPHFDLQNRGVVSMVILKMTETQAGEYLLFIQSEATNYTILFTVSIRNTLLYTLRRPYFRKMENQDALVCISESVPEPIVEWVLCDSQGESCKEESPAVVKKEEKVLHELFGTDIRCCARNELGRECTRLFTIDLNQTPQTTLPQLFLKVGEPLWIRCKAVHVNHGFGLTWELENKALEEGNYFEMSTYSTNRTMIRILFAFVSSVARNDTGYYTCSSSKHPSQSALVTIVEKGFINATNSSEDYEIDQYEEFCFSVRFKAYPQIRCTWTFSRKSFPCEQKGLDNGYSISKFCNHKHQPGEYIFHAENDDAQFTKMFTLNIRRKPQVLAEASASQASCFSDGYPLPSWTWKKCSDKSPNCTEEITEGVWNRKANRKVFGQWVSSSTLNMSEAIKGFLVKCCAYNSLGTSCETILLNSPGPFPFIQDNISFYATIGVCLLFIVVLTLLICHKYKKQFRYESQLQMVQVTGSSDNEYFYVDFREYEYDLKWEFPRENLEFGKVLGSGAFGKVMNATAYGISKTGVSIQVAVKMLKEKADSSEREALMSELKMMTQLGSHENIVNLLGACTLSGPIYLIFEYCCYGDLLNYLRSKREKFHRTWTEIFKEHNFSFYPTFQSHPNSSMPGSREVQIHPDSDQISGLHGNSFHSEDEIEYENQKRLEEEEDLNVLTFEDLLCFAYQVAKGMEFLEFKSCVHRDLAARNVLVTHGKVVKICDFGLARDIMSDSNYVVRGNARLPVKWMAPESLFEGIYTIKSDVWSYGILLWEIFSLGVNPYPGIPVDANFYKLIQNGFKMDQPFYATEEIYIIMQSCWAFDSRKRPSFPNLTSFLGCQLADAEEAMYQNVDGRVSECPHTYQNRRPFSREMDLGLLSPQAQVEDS
Description: Inhibition of FLT3 kinase (unknown origin)

[8] = test system: Receptor-type tyrosine-protein kinase FLT3 (Homo sapiens), P36888 [D835Y]; assay: Inhibition of human FLT3 kinase D835Y mutant assessed as residual activity at 10 uM relative to control

IC50 (RAW264.7 [1]): 4220 nM
GI50 (HL-60): 264 nM
IC50 (RAW264.7 [2]): 1920 nM
IC50 [3]: Not Active
IC50 [4]: > 50000 nM
Activity [5]: 5%
GI50 (MV4-11): 3 nM
IC50 [7]: 65 nM
Activity [8]: 2%
Compound: CC1=CC(=O)N(Nc2nc(-c3cccs3)nc3scc(C)c23)C1=O
Activity (K562): 0.257%
GI50 [6]: 111 nM

— ChEMBL document CHEMBL3286226, “Discovery of thienopyrimidine-based FLT3 inhibitors from the structural modification of known IKKβ inhibitors” (Bioorg Med Chem Lett, 2014)
